Measured values published in US20250129088A1, “CEREBLON E3 UBIQUITIN LIGASE INHIBITOR” (Gan & Lee Pharmaceuticals Co., Ltd., priority 2022, published 2025).

Tests used:
Assay type in all cases: cell-based
K562 cells = assay: K562 cell proliferation inhibition, CCK-8; settings: K562, 4 days, Table 12, positive control dBET6
Description: The complete medium required for K562 cells is IMDM (ATCC, Product number: 30-2005) basal medium containing 10% fetal bovine serum. K562 cells were seeded in a 96-well plate at a density of 7,500 cells/well, and different concentrations of the compound of the present invention and positive control samples Alisertib (source: Bide Pharmaceuticals) and dBET6 (source: Bide Pharmaceuticals) were prepared to treat the cells. The cells were incubated at a 37° C., 5% CO2 cell culture incubator for 4 days.
Cell viability was detected using the CCK-8 kit (Beyotime, Product number: C0040) according to the manufacturer's instructions. According to the inhibition rate, GraphPad Prism software was used to calculate the IC50 value of each compound for 4 days, and the results are shown in Table 11-12.

LNCaP FGC cells = assay: LNCaP FGC cell proliferation inhibition, CCK-8; settings: Homo sapiens, 96 h, 4 days
Description: The complete medium required for LNCaP FGC cells is RPMI 1640 (ATCC, Product number: 30-2001) basal medium containing 10% fetal calf serum. […] Cell viability was detected using the CCK-8 kit (Beyotime, Product number: C0040) according to the manufacturer's instructions.

VCaP cells = assay: VCaP cell proliferation inhibition, CCK-8; settings: Homo sapiens, 168 h, 7 days
Description: The complete medium required for VCaP cells is DMEM high glucose (Gibco, Product number: 11995-065) basal medium containing 10% fetal bovine serum. […] Cell viability was detected using the CCK-8 kit (Beyotime, Product number: C0040) according to the manufacturer's instructions.

`Cc1nc(Nc2ncc(C(=O)Nc3c(C)cccc3Cl)s2)cc(N2CCN(CCOCCC(=O)N3CC4(CCc5cc6c(cc5O4)C(=O)N(C4CCC(=O)NC4=O)C6=O)C3)CC2)n1` (centres unmarked) [PROTAC 11, N-(2-chloro-6-methylphenyl)-2-((6-(4-(2-(3-(7′-(2,6-dioxopiperidin-3-yl)-6′,8′-dioxo-4′,6′,7′,8′-tetrahydro-3′H-spiro[azetidine-3,2′-pyrano[2,3-f]isoindol]-1-yl)-3-oxopropoxy)ethyl)piperazin-1-yl)-2-methylpyrimidin-4-yl)amino)thiazole-5-carboxamide] was tested, and the IC50 (K562 cells; Homo sapiens, 96 h) was 66 nM.
Work on `Cc1nc(Nc2ncc(C(=O)Nc3c(C)cccc3Cl)s2)cc(N2CCN(CCOCCC(=O)N3CCC4(CCc5cc6c(cc5O4)C(=O)N(C4CCC(=O)NC4=O)C6)CC3)CC2)n1` (centres unmarked) [PROTAC 13, N-(2-chloro-6-methylphenyl)-2-((6-(4-(2-(3-(7′-(2,6-dioxopiperidin-3-yl)-8′-oxo-4′,6′,7′,8′-tetrahydro-3′H-spiro[piperidine-4,2′-pyrano[2,3-f]isoindole]-1-yl)-3-oxopropoxy)ethyl)piperazin-1-yl)-2-methylpyrimidin-4-yl)amino)thiazole-5-carboxamide] yielded an IC50 (K562 cells; Homo sapiens, 96 h) of 20 nM.
Molecule `Cc1nc(Nc2ncc(C(=O)Nc3c(C)cccc3Cl)s2)cc(N2CCN(CCOCCC(=O)N3CC4(CCc5cc6c(cc5O4)C(=O)N(C4CCC(=O)NC4=O)C6)C3)CC2)n1` (centres unmarked) [PROTAC 14, N-(2-chloro-6-methylphenyl)-2-((6-(4-(2-(3-(7′-(2,6-dioxopiperidin-3-yl)-8′-oxo-4′,6′,7′,8′-tetrahydro-3′H-spiro[azetidine-3,2′-pyrano[2,3-f]isoindol]-1-yl)-3-oxopropoxy)ethyl)piperazin-1-yl)-2-methylpyrimidin-4-yl)amino)thiazole-5-carboxamide] has an IC50 (K562 cells; Homo sapiens, 96 h) of 57 nM.
`Cc1nc(Nc2ncc(C(=O)Nc3c(C)cccc3Cl)s2)cc(N2CCN(CCOCCC(=O)N3CCC4(CC3)COc3cc5c(cc3O4)CN(C3CCC(=O)NC3=O)C5=O)CC2)n1` (centres unmarked) [PROTAC 15, N-(2-chloro-6-methylphenyl)-2-((6-(4-(2-(3-(7′-(2,6-dioxopiperidin-3-yl)-6′-oxo-7′,8′-dihydro-3′H,6′H-spiro[piperidine-4,2′-[1,4]dioxino[2,3-f]isoindol]-1-yl)-3-oxopropoxy)ethyl)piperazin-1-yl)-2-methylpyrimidin-4-yl)amino)thiazole-5-carboxamide] showed an IC50 (K562 cells; Homo sapiens, 96 h) of 5 nM.
`Cc1nc(Nc2ncc(C(=O)Nc3c(C)cccc3Cl)s2)cc(N2CCN(CCOCCC(=O)N3CC4(CCc5cc6c(cc5O4)CN(C4CCC(=O)NC4=O)C6=O)C3)CC2)n1` (centres unmarked) [PROTAC 16, N-(2-chloro-6-methylphenyl)-2-((6-(4-(2-(3-(7′-(2,6-dioxopiperidin-3-yl)-6′-oxo-4′,6′,7′,8′-tetrahydro-3′H-spiro[azetidine-3,2′-pyrano[2,3-f]isoindole]-1-yl)-3-oxopropoxy)ethyl)piperazin-1-yl)-2-methylpyrimidin-4-yl)amino)thiazole-5-carboxamide] gave an IC50 (K562 cells; Homo sapiens, 96 h) of 48 nM.
`CC1(C)C(=O)N(c2ccc(C#N)c(C(F)(F)F)c2)C(=S)N1c1ccc(C(=O)N2CC[C@@H](CN3CCC4(CC3)COc3cc5c(cc3C4)C(=O)N(C3CCC(=O)NC3=O)C5=O)C2)c(F)c1` (stereo partly drawn) [PROTAC 70, 4-(3-(4-((3S)-3-((7′-(2,6-dioxopiperidin-3-yl)-6′,8′-dioxo-4′,6′,7′,8′-tetrahydro-2′H-spiro[piperidine-4,3′-pyrano[2,3-f]isoindole]-1-yl)methyl)pyrrolidine-1-carbonyl)-3-fluorophenyl)-4,4-dimethyl-5-oxo-2-thioimidazolidin-1-yl)-2-(trifluoromethyl)benzonitrile] gave an IC50 (LNCaP FGC cells) of 7060 nM and an IC50 (VCaP cells) of 9730 nM.
In the case of `CC1(C)C(=O)N(c2ccc(C#N)c(C(F)(F)F)c2)C(=S)N1c1ccc(C(=O)N2CCC(CN3CCC4(CCc5cc6c(cc5O4)CN(C4CCC(=O)NC4=O)C6=O)CC3)CC2)c(F)c1` (centres unmarked) [PROTAC 72], the IC50 (LNCaP FGC cells) is reported as 5340 nM and the IC50 (VCaP cells) is reported as 7400 nM.
In the case of `CC1(C)C(=O)N(c2ccc(C#N)c(C(F)(F)F)c2)C(=S)N1c1ccc(C(=O)N2CC3(CCC(N4CCC5(CC4)COc4cc6c(cc4C5)C(=O)N(C4CCC(=O)NC4=O)C6=O)CC3)C2)c(F)c1` (centres unmarked) [PROTAC 73, 4-(3-(4-(7-(7′-(2,6-dioxopiperidin-3-yl)-6′,8′-dioxo-4′,6′,7′,8′-tetrahydro-2′H-spiro[piperidin-4,3′-pyrano[2,3-f]isoindol]-1-yl)-2-azaspiro[3.5]nonane-2-carbonyl)-3-fluorophenyl)-4,4-dimethyl-5-oxo-2-thioimidazolidin-1-yl)-2-(trifluoromethyl)benzonitrile], the IC50 (LNCaP FGC cells) is reported as 4530 nM and the IC50 (VCaP cells) is reported as 2490 nM.
`CC1(C)C(=O)N(c2ccc(C#N)c(C(F)(F)F)c2)C(=S)N1c1ccc(C(=O)N2CCC3(CCC(N4CCC5(CC4)COc4cc6c(cc4C5)C(=O)N(C4CCC(=O)NC4=O)C6=O)CC3)C2)c(F)c1` (centres unmarked) [PROTAC 74, 4-(3-(4-(8-(7′-(2,6-dioxopiperidin-3-yl)-6′ 8′-dioxo-4′,6′,7′,8′-tetrahydro-2′H-spiro[piperidin-4,3′-pyrano[2,3-f]isoindol]-1-yl)-2-azaspiro[4.5]decane-2-carbonyl)-3-fluorophenyl)-4,4-dimethyl-5-oxo-2-thioimidazolidin-1-yl)-2-(trifluoromethyl)benzonitrile] was tested, and the IC50 (LNCaP FGC cells) was 2660 nM and the IC50 (VCaP cells) was 3260 nM.
`COC1(CN2CC3(COc4cc5c(cc4C3)C(=O)N(C3CCC(=O)NC3=O)C5=O)C2)CCN(C(=O)c2ccc(N3C(=S)N(c4ccc(C#N)c(C(F)(F)F)c4)C(=O)C3(C)C)cc2F)CC1` (centres unmarked) [PROTAC 75] was tested, and the IC50 (LNCaP FGC cells) was 530 nM and the IC50 (VCaP cells) was 170 nM.
`COC1(CN2CC3(CCc4cc5c(cc4O3)CN(C3CCC(=O)NC3=O)C5=O)C2)CCN(C(=O)c2ccc(N3C(=S)N(c4ccc(C#N)c(C(F)(F)F)c4)C(=O)C3(C)C)cc2F)CC1` (centres unmarked) [PROTAC 76] was tested, and the IC50 (LNCaP FGC cells) was 3240 nM and the IC50 (VCaP cells) was 350 nM.
Work on `CC1(C)C(=O)N(c2ccc(C#N)c(C(F)(F)F)c2)C(=S)N1c1ccc(C(=O)N2CC(N3CC4(CCc5cc6c(cc5O4)C(=O)N(C4CCC(=O)NC4=O)C6=O)C3)C2)c(F)c1` (centres unmarked) [PROTAC 77, 4-(3-(4-(3-(7′-(2,6-dioxopiperidin-3-yl)-6′,8′-dioxo-4′,6′,7′,8′-tetrahydro-3′H-spiro [azetidine-3,2′-pyrano[2,3-f]isoindole]-1-yl)azetidine-1-carbonyl)-3-fluorophenyl)-4,4-dimethyl-5-oxo-2-thioimidazolidin-1-yl)-2-(trifluoromethyl)benzonitrile] yielded an IC50 (LNCaP FGC cells) of 6450 nM and an IC50 (VCaP cells) of 2030 nM.
With `CC1(C)C(=O)N(c2ccc(C#N)c(C(F)(F)F)c2)C(=S)N1c1ccc(C(=O)N2CCC(N3CCC4(CC3)COc3cc5c(cc34)C(=O)N(C3CCC(=O)NC3=O)C5=O)CC2)c(F)c1` (centres unmarked) [PROTAC 80, 4-(3-(4-(4-(6-(2,6-dioxopiperidin-3-yl)-5,7-dioxo-6,7-dihydro-2H,5H-spiro[furo[2,3-f]isoindole-3,4′-piperidin]-1′-yl)piperidine-1-carbonyl)-3-fluorophenyl)-4,4-dimethyl-5-oxo-2-thioimidazolidin-1-yl)-2-(trifluoromethyl)benzonitrile] the IC50 (LNCaP FGC cells) was 3240 nM and the IC50 (VCaP cells) was 9480 nM.
In the case of `CC1(C)C(=O)N(c2ccc(C#N)c(C(F)(F)F)c2)C(=S)N1c1ccc(C(=O)N2CCC3(CCC(N4CCC5(CCc6cc7c(cc6O5)C(=O)N(C5CCC(=O)NC5=O)C7=O)CC4)CC3)CC2)c(F)c1` (centres unmarked) [PROTAC 83, 4-(3-(4-(9-(7′-(2,6-dioxopiperidin-3-yl)-6′,8′-dioxo-4′,6′,7′,8′-tetrahydro-3′H-spiro[piperidine-4,2′-pyrano[2,3-f]isoindol]-1-yl)-3-azaspiro[5.5]undecane-3-carbonyl)-3-fluorophenyl)-4,4-dimethyl-5-oxo-2-thioimidazolidin-1-yl)-2-(trifluoromethyl)benzonitrile], the IC50 (LNCaP FGC cells) is reported as 2630 nM and the IC50 (VCaP cells) is reported as 890 nM.
Molecule `CC1(C)C(=O)N(c2ccc(C#N)c(C(F)(F)F)c2)C(=S)N1c1ccc(C(=O)N2CC3(CC(N4CCC5(CCc6cc7c(cc6O5)C(=O)N(C5CCC(=O)NC5=O)C7=O)CC4)C3)C2)c(F)c1` (centres unmarked) [PROTAC 85, 4-(3-(4-(6-(7′-(2,6-dioxopiperidin-3-yl)-6′,8′-dioxo-4′,6′,7′,8′-tetrahydro-3′H-spiro[piperidin-4,2′-pyrano[2,3-f]isoindol]-1-yl)-2-azaspiro[3.3]heptane-2-carbonyl)-3-fluorophenyl)-4,4-dimethyl-5-oxo-2-thioimidazolidin-1-yl)-2-(trifluoromethyl)benzonitrile] has an IC50 (LNCaP FGC cells) of 27900 nM and an IC50 (VCaP cells) of 620 nM.
In the case of `Cc1sc2c(c1C)C(c1ccc(Cl)cc1)=N[C@@H](CC(=O)NCCCCCCCCNC(=O)COc1cccc3c1C(=O)N(C1CCC(=O)NC1=O)C3=O)c1nnc(C)n1-2` (some centres unmarked) [dBET6, reference compound], the IC50 (K562 cells) is reported as 1 nM.
